# Measured values reported in PubChem BioAssay (NCI).
#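 Five compound concentrations were applied to cells in 96-well plates for 48 hours; endpoints were derived by simple linear interpolation of the resulting dose-response curve. TGI marks complete inhibition of growth.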
# Experiments:
# Experiment in all cases: NCI tumour cell line growth inhibition, 48 h
# [1] = tested on: SF-295 CNS
# [2] = tested on: HOP-18 NSCLC
# [3] = tested on: SF-268 CNS
# [4] = tested on: DMS 273 small cell lung
# [5] = tested on: SK-OV-3 ovarian
# [6] = tested on: A498 renal
# [7] = tested on: SN12C renal
# [8] = tested on: OVCAR-8 ovarian
# [9] = tested on: UO-31 renal
# [10] = tested on: OVCAR-3 ovarian
# [11] = tested on: KM20L2 colon
# [12] = tested on: HL-60(TB) leukemia
# [13] = tested on: 786-0 renal
# [14] = tested on: OVCAR-4 ovarian
# [15] = tested on: SW-620 colon
# [16] = tested on: MALME-3M melanoma
# [17] = tested on: SNB-75 CNS
# [18] = tested on: NCI-H522 lung
# [19] = tested on: HCT-116 colon
# [20] = tested on: UACC-257 melanoma
# [21] = tested on: HT29 colon
# [22] = tested on: K-562 leukemia
# [23] = tested on: RPMI-8226 leukemia
# [24] = tested on: HOP-92 NSCLC
# [25] = tested on: EKVX NSCLC
# [26] = tested on: LOX IMVI melanoma
# [27] = tested on: LXFL 529 NSCLC
# [28] = tested on: SR leukemia
# [29] = tested on: CCRF-CEM leukemia
# [30] = tested on: SNB-19 CNS
# [31] = tested on: U251 CNS
# [32] = tested on: XF 498 CNS
# [33] = tested on: SK-MEL-28 melanoma
# [34] = tested on: NCI-H23 lung
# [35] = tested on: DLD-1 colon
# [36] = tested on: IGROV1 ovarian
# [37] = tested on: M19-MEL melanoma
# [38] = tested on: RXF-631 renal
# [39] = tested on: NCI-H226 lung
# [40] = tested on: UACC-62 melanoma
# [41] = tested on: HCT-15 colon
# [42] = tested on: A549 NSCLC
# [43] = tested on: ACHN renal
# [44] = tested on: SNB-78 CNS
# [45] = tested on: M14 melanoma
# [46] = tested on: RXF 393 renal
# [47] = tested on: SK-MEL-5 melanoma
# [48] = tested on: COLO 205 colon
# [49] = tested on: SF-539 CNS
# [50] = tested on: HCC-2998 colon
# [51] = tested on: MOLT-4 leukemia
# [52] = tested on: TK-10 renal
# [53] = tested on: CAKI-1 renal
# [54] = tested on: OVCAR-5 ovarian
# [55] = tested on: SK-MEL-2 melanoma
# [56] = tested on: HOP-62 NSCLC
# [57] = tested on: NCI-H460 lung
# [58] = tested on: KM12 colon
# [59] = tested on: DMS 114 small cell lung
smiles,measurement,setting,value
C/C(CC(=O)N(C(C)C)C(C)C)=N\NC(=O)c1ccncc1,TGI,[1],> 100 µM
same,TGI,[2],> 100 µM
same,TGI,[3],> 100 µM
same,TGI,[4],> 100 µM
same,TGI,[5],> 100 µM
same,TGI,[6],> 100 µM
same,TGI,[7],> 100 µM
same,TGI,[8],> 100 µM
same,TGI,[9],> 100 µM
same,TGI,[10],> 100 µM
same,TGI,[11],> 100 µM
same,TGI,[12],> 100 µM
same,TGI,[13],> 100 µM
same,TGI,[14],> 100 µM
same,TGI,[15],> 100 µM
same,TGI,[16],> 100 µM
same,TGI,[17],> 100 µM
same,TGI,[18],> 100 µM
same,TGI,[19],> 100 µM
same,TGI,[20],> 100 µM
same,TGI,[21],> 100 µM
same,TGI,[22],> 100 µM
same,TGI,[23],> 100 µM
same,TGI,[24],> 100 µM
same,TGI,[25],> 100 µM
same,TGI,[26],> 100 µM
same,TGI,[27],> 100 µM
same,TGI,[28],> 100 µM
same,TGI,[29],> 100 µM
same,TGI,[30],> 100 µM
same,TGI,[31],> 100 µM
same,TGI,[32],> 100 µM
same,TGI,[33],> 100 µM
same,TGI,[34],> 100 µM
same,TGI,[35],> 100 µM
same,TGI,[36],> 100 µM
same,TGI,[37],> 100 µM
same,TGI,[38],> 100 µM
same,TGI,[39],> 100 µM
same,TGI,[40],> 100 µM
same,TGI,[41],> 100 µM
same,TGI,[42],> 100 µM
same,TGI,[43],> 100 µM
same,TGI,[44],> 100 µM
same,TGI,[45],> 100 µM
same,TGI,[46],> 100 µM
same,TGI,[47],> 100 µM
same,TGI,[48],> 100 µM
same,TGI,[49],> 100 µM
same,TGI,[50],> 100 µM
same,TGI,[51],> 100 µM
COc1ccc(CCN=C2CCC(C(=O)NCCc3ccc(OC)c(OC)c3)N2)cc1OC (stereo unspecified),TGI,[52],> 100 µM
same,TGI,[1],> 100 µM
same,TGI,[2],> 100 µM
same,TGI,[3],> 100 µM
same,TGI,[4],> 100 µM
same,TGI,[5],> 100 µM
same,TGI,[6],> 100 µM
same,TGI,[53],> 100 µM
same,TGI,[7],> 100 µM
same,TGI,[8],> 100 µM
same,TGI,[9],> 100 µM
same,TGI,[10],> 100 µM
same,TGI,[11],> 100 µM
same,TGI,[12],> 100 µM
same,TGI,[13],> 100 µM
same,TGI,[14],> 100 µM
same,TGI,[15],> 100 µM
same,TGI,[16],> 100 µM
same,TGI,[17],> 100 µM
same,TGI,[18],> 100 µM
same,TGI,[19],> 100 µM
same,TGI,[20],> 100 µM
same,TGI,[21],> 100 µM
same,TGI,[54],> 100 µM
same,TGI,[22],> 100 µM
same,TGI,[55],> 100 µM
same,TGI,[23],> 100 µM
same,TGI,[24],> 100 µM
same,TGI,[25],> 100 µM
same,TGI,[26],> 100 µM
same,TGI,[56],> 100 µM
same,TGI,[27],> 100 µM
same,TGI,[29],> 100 µM
same,TGI,[30],> 100 µM
same,TGI,[31],> 100 µM
same,TGI,[32],> 100 µM
same,TGI,[33],> 100 µM
same,TGI,[34],> 100 µM
same,TGI,[35],> 100 µM
same,TGI,[36],> 100 µM
same,TGI,[38],> 100 µM
same,TGI,[39],> 100 µM
same,TGI,[40],> 100 µM
same,TGI,[57],> 100 µM
same,TGI,[41],> 100 µM
same,TGI,[42],> 100 µM
same,TGI,[43],> 100 µM
same,TGI,[44],> 100 µM
same,TGI,[45],> 100 µM
same,TGI,[47],> 100 µM
same,TGI,[58],> 100 µM
same,TGI,[48],> 100 µM
same,TGI,[50],> 100 µM
same,TGI,[51],> 100 µM
same,TGI,[59],> 100 µM
O=C1c2ccccc2C(=O)c2nc3ccc(Cl)cc3cc21,TGI,[52],> 100 µM
same,TGI,[1],> 100 µM
same,TGI,[3],> 100 µM
same,TGI,[4],> 100 µM
same,TGI,[5],> 100 µM
same,TGI,[53],> 100 µM
same,TGI,[7],> 100 µM
same,TGI,[8],> 100 µM
same,TGI,[9],> 100 µM
same,TGI,[10],> 100 µM
same,TGI,[11],> 100 µM
same,TGI,[13],> 100 µM
same,TGI,[14],> 100 µM
same,TGI,[15],> 100 µM
same,TGI,[16],> 100 µM
same,TGI,[17],> 100 µM
same,TGI,[18],> 100 µM
same,TGI,[19],> 100 µM
same,TGI,[21],> 100 µM
same,TGI,[54],> 100 µM
same,TGI,[22],> 100 µM
same,TGI,[55],> 100 µM
same,TGI,[23],> 100 µM
same,TGI,[24],> 100 µM
same,TGI,[25],> 100 µM
same,TGI,[26],> 100 µM
same,TGI,[56],> 100 µM
same,TGI,[27],> 100 µM
same,TGI,[28],> 100 µM
same,TGI,[29],> 100 µM
same,TGI,[30],> 100 µM
same,TGI,[31],> 100 µM
same,TGI,[32],> 100 µM
same,TGI,[33],> 100 µM
same,TGI,[34],> 100 µM
same,TGI,[35],> 100 µM
same,TGI,[36],> 100 µM
same,TGI,[37],> 100 µM
same,TGI,[38],> 100 µM
same,TGI,[39],> 100 µM
same,TGI,[40],> 100 µM
same,TGI,[57],> 100 µM
same,TGI,[41],> 100 µM
same,TGI,[42],> 100 µM
same,TGI,[43],> 100 µM
same,TGI,[44],> 100 µM
same,TGI,[45],> 100 µM
same,TGI,[47],> 100 µM
same,TGI,[58],> 100 µM
same,TGI,[48],> 100 µM
same,TGI,[49],> 100 µM
same,TGI,[50],> 100 µM
same,TGI,[51],> 100 µM
same,TGI,[59],> 100 µM
C[C@]12CC[C@H](OC3CCCCO3)CC1=CC[C@@H]1C2CC[C@]2(C)/C(=N/O)CCC12 (stereo partly specified),TGI,[52],70.1 µM
same,TGI,[1],34.9 µM
same,TGI,[2],30.5 µM
same,TGI,[4],51.8 µM
same,TGI,[5],82 µM
same,TGI,[6],> 100 µM
same,TGI,[53],> 100 µM
same,TGI,[7],31.5 µM
same,TGI,[8],40.5 µM
same,TGI,[9],> 100 µM
same,TGI,[10],31.1 µM
same,TGI,[11],30.5 µM
same,TGI,[13],55.8 µM
same,TGI,[14],39 µM
same,TGI,[15],> 100 µM
same,TGI,[16],80.4 µM
same,TGI,[17],41.9 µM
same,TGI,[18],31.1 µM
same,TGI,[19],29.6 µM
same,TGI,[20],79.8 µM
same,TGI,[21],26.8 µM
same,TGI,[54],75.6 µM
same,TGI,[22],> 100 µM
same,TGI,[55],89.7 µM
same,TGI,[23],40 µM
same,TGI,[24],46 µM
same,TGI,[25],82.9 µM
same,TGI,[26],27.5 µM
same,TGI,[56],> 100 µM
same,TGI,[27],45.6 µM
same,TGI,[30],67.1 µM
same,TGI,[31],40.4 µM
same,TGI,[32],68.6 µM
same,TGI,[33],54.3 µM
same,TGI,[34],39.1 µM
same,TGI,[35],> 100 µM
same,TGI,[36],> 100 µM
same,TGI,[40],> 100 µM
same,TGI,[57],62.1 µM
same,TGI,[41],44.5 µM
same,TGI,[42],34.9 µM
same,TGI,[43],54.3 µM
same,TGI,[44],64.4 µM
same,TGI,[45],63.9 µM
same,TGI,[46],44.8 µM
same,TGI,[47],> 100 µM
same,TGI,[58],32.4 µM
same,TGI,[49],> 100 µM
same,TGI,[50],37.8 µM
same,TGI,[51],48.9 µM
same,TGI,[59],37.9 µM
